Test results: US12492200B2, “NLRP3 modulators” (INNATE TUMOR IMMUNITY, INC., priority 2020, dated 2025)

Legend:
Type in all cases: cell-based
NLRP3 = biological target: T1, NLRP3 (Homo sapiens, UniProt Q96P20); test: Measurement of IL-1β production (NLRP3 hIL1β EC50), PMA-differentiated THP-1 cells; conditions: human IL-1β production; assayed using one or more of the described procedures
T1 construct: host or cells: PMA-differentiated THP-1 cells
Procedure: THP-1 cells were purchased from the American Type Culture Collection and sub-cultured according to instructions from the supplier. Prior to experiments, cells were cultured in RPMI 1640 containing 10% heat inactivated FBS, penicillin (100 units/ml) and streptomycin (100 μg/ml), and maintained in log phase prior to experimental setup. Prior to the experiment THIP-1 were treated with PMA (Phorbol 12-myristate 13-acetate) (10 μg/ml) for 24 hours. The day of the experiment the media was removed and attaching cells were treated with trypsin for 2 minutes, cells were then collected, washed with PBS (phosphate buffer saline), spin down, resuspended in 2% heat inactivated FBS with RPMI at a concentration of 1×10^6 cells/ml, and 100 μl was plated in a 96 well plate. Compounds were dissolved in dimethyl sulfoxide (DMSO) and added to the culture medium to achieve desired concentration (e.g. 100, 30, 10, 3, 1, 0.3 or 0.1 μM). Cells were incubated with compounds for 4 hours. Cell free supernatant was collected and the production of IL-1β was evaluated by ELISA. A vehicle only control was run concurrently with each experiment. Final DMSO concentration was 1%.
THP-1 cells were purchased from the American Type Culture Collection and sub-cultured according to instructions from the supplier. Prior to experiments, cells were cultured in RPMI 1640 containing 10% heat inactivated FBS, penicillin (100 units/ml), streptomycin (100 μg/ml), HEPES (10 mM) and sodium pyruvate (1 mM) and maintained in log phase prior to experimental setup. Prior to the experiment, THP-1 cells were treated with PMA (Phorbol 12-myristate 13-acetate) (20 μg/ml) overnight. The day of the experiment, the media was removed and attached cells were treated with trypsin for 2 minutes, cells were then collected, washed with PBS (phosphate buffer saline), pelleted by centrifugation and resuspended in 2% heat inactivated FBS with RPMI at a concentration of 50,000 cells/well in a 384 well plate. Cell free supernatant was collected and the production of IL-1β was evaluated by ELISA. Compounds were dissolved in dimethyl sulfoxide (DMSO) and added to the culture medium to achieve desired concentration (e.g. 100, 30, 10, 3, 1, 0.3 or 0.1 μM). Cells were incubated with compounds for 2 hours. A vehicle only control was run concurrently with each experiment. Final DMSO concentration was 1%.
Serial dilutions of compounds in DMSO were added to low volume 384 well plates at 100 nl/well using an ECHO 550 acoustic dispenser (Labcyte) to achieve final starting concentration of 10 μM in assay.
THP-1 cells in RPMI (Gibco, 11875) media with 10% FBS at a density of 1×10^6 cell/ml in a T175 flask were treated with a final concentration of phorbol 12-myristate 13-acetate (PMA) (Sigma,P1585) of 50 ng/ml overnight at 37° C. at 5% CO2 for differentiation. Cells were harvested the next day after rinsing well with dPBS using 0.5% trypsin. A cell solution was prepared of 1×10^6 cells/ml for 50,000 cells in 50 μl/well in RPMI media with 2% FBS. Cells were plated using a multichannel pipette onto the compound dilutions in Greiner, 384 well, black clear bottom tissue culture treated plates (781090). The plates were incubated in 37° C. incubator at 5% CO2 for 2 hours.
After the 2 hour incubation, the cell plates were spun in the centrifuge for 5 minutes at 1200 rpm. Using the Felix (CyBio), 8 μl of the supernatant was transferred to 384 well, low volume, white proxy plates. (Perkin Elmer, 6008230). A human IL1beta hTRF kit was used to analyze the supernatant (CISBIO, 62HIL1BPEG). The kit instructions were followed for preparing the IL1Beta standard curve and then the antibodies from the kit were diluted 1:40 rather than 1:20 as kit instructed. Once combined, the antibodies were added across the plates, 5 μl/well. The plates were sealed and incubated at 4° C. overnight. The plates were then read on the Perkin Elmer EnVision at 665/615 nm using the hTRF laser.

human TLR8 = biological target: T2, human TLR8 (Homo sapiens, UniProt Q9NR97); test: In vitro human TLR8 reporter assay (HEK-Blue cells, NF-kB/AP1-inducible SEAP); conditions: TLR8 agonist EC50, HEK-Blue TLR8 NF-kB-SEAP reporter cells
T2 construct: host or cells: HEK-Blue cells (human HEK) co-expressing TLR8 and an NF-kB/AP1-inducible SEAP reporter
T2 sequence (Q9NR97 27-1041): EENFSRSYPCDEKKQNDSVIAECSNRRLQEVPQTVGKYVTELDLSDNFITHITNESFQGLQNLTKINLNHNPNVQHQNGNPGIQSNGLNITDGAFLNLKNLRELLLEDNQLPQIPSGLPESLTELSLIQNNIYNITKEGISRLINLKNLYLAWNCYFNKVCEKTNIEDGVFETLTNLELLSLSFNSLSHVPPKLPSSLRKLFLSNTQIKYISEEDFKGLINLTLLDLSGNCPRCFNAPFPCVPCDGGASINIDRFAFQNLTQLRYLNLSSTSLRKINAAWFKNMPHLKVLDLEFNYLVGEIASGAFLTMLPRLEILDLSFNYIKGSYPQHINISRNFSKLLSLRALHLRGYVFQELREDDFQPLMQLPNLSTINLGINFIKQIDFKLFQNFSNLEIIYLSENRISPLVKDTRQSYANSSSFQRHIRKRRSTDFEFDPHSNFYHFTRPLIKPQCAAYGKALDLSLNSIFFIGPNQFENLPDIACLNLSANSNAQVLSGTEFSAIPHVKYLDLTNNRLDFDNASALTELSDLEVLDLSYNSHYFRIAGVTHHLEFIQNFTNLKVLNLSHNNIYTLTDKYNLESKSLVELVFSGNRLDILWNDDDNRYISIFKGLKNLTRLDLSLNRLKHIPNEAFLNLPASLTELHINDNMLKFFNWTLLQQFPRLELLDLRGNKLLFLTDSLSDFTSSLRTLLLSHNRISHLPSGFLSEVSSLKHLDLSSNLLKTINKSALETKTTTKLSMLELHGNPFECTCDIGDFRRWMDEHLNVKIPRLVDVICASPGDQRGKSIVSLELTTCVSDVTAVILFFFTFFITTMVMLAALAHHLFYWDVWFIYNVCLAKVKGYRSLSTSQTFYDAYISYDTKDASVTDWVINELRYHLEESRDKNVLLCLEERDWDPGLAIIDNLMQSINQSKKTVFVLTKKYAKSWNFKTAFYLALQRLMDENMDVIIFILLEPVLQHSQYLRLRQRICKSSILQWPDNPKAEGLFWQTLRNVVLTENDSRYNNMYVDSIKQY
Procedure: (§1) Logarithmically-growing human HEK-Blue cells co-expressing a TLR7 or TLR8 gene and a NF-kB/AP1-inducible SEAP (secreted embryonic alkaline phosphatase; Invivogen, San Diego, CA) reporter gene are added to individual wells of a 384-well plate (15,000 cells per 20 μL per well) and maintained for 24 h at 37° C., 5% CO2. Test compounds or DMSO are distributed to separate wells the next day using acoustic liquid handling technology (100 nL per well) and cells are subsequently incubated for 18 h at 37° C., 5% CO2. Cellular SEAP production is measured using an Envision plate reader instrument thirty minutes after adding freshly-made Quanti-Blue reagent (prepared by following manufacturer instructions; Invivogen, San Diego, CA) to the HEK-Blue TLR Nf-kB-SEAP cell reactions. All EC50 values (half-maximal effective concentration) are determined using proprietary data analysis software. Normalized EC50 value=absolute value determined by setting 100% Ymax using a reference standard RLU (relative light unit) values from cells treated with 50 μM of the reference standard.

human TLR7 = biological target: T3, human TLR7 (Homo sapiens, UniProt Q9NYK1); test: In vitro human TLR7 reporter assay (HEK-Blue cells, NF-kB/AP1-inducible SEAP); conditions: TLR7 agonist EC50, HEK-Blue TLR7 NF-kB-SEAP reporter cells
T3 construct: host or cells: HEK-Blue cells (human HEK) co-expressing TLR7 and an NF-kB/AP1-inducible SEAP reporter
T3 sequence (Q9NYK1 27-1049): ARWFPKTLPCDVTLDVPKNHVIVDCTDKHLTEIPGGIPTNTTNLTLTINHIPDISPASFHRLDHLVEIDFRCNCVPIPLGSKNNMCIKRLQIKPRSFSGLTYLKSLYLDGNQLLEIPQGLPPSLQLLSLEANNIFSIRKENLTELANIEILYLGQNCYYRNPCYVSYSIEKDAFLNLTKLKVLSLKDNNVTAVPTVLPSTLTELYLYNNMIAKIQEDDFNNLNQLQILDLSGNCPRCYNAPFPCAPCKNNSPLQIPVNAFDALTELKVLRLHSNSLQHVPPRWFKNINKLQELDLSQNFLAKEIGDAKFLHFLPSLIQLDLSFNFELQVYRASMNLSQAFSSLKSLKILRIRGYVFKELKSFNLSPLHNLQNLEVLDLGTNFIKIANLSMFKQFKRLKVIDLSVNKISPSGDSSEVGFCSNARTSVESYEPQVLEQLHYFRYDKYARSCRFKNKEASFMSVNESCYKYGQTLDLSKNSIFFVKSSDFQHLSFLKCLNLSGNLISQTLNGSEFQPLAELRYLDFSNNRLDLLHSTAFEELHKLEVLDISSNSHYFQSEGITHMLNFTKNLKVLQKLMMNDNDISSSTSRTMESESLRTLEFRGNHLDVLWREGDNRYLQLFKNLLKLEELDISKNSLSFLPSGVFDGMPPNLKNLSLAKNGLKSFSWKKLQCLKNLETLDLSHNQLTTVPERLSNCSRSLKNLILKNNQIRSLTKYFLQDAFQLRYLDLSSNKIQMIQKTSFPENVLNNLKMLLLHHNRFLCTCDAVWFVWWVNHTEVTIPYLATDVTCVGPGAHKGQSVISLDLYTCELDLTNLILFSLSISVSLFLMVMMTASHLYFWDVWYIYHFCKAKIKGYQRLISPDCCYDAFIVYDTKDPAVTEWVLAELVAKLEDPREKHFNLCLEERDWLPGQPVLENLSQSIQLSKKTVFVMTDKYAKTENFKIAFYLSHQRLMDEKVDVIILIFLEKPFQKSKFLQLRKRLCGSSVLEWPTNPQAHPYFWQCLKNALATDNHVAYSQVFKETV
Procedure: as §1

T1 sequence (Q96P20 whole entry): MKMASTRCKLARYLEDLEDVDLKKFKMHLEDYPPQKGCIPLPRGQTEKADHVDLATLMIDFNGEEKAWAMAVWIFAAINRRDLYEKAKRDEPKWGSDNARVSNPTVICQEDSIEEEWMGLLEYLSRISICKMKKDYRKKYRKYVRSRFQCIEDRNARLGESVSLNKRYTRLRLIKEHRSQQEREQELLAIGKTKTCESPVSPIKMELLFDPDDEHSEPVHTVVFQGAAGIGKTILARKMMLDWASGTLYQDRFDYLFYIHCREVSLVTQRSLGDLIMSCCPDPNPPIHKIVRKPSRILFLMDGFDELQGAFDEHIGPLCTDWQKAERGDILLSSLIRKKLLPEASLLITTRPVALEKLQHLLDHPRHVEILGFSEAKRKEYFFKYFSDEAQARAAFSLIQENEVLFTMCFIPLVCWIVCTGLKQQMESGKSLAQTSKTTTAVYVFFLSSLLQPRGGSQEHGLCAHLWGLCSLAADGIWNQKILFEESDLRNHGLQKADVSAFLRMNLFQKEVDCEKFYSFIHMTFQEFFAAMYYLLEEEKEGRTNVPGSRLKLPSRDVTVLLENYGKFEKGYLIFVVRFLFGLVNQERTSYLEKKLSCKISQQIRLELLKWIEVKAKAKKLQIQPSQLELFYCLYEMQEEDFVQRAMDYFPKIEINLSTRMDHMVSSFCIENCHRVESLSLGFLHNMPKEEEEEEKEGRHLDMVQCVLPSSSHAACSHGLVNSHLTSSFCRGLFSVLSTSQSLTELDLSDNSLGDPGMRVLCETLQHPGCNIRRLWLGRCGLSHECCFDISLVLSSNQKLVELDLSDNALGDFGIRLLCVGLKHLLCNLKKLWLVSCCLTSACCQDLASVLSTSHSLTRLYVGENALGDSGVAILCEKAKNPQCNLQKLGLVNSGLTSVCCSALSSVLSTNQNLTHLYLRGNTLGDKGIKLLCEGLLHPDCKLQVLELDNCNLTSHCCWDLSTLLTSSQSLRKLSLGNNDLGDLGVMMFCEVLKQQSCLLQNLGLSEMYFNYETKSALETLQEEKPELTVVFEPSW

Row | Compound | EC50 (NLRP3) | EC50 (human TLR8) | EC50 (human TLR7)
1 | CC(C)(C)OC(=O)N1CCC[C@@H](c2nc3c(N)nc4cc(-c5cc[nH]n5)ccc4c3[nH]2)C1 [Example 6, tert-Butyl (R)-3-(4-amino-7-(1H-pyrazol-3-yl)-1H-imidazo[4,5-c]quinolin-2-yl)piperidine-1-carboxylate] | 0.36 µM | 10 µM | 
2 | N#CC1(C(=O)N2CCC[C@H](c3nc4c(N)nc5cc(-c6cc[nH]n6)ccc5c4[nH]3)C2)CCCC1 [Example 39] | 2.5 µM |  | 35 µM
3 | CC(C)(C)OC(=O)N1CCC[C@H](c2nc3c(N)nc4cc(-c5cc[nH]n5)ccc4c3[nH]2)C1 [Example 1, tert-Butyl (S)-3-(4-amino-7-(1H-pyrazol-3-yl)-1H-imidazo[4,5-c]quinolin-2-yl)piperidine-1-carboxylate] | 0.33 µM | 10 µM | 
4 | Nc1nc2cc(-c3cc[nH]n3)ccc2c2[nH]c([C@H]3CCCN(C(=O)Cc4ccccc4)C3)nc12 [Example 40] | 3.8 µM |  | 58 µM

Next, values leading:

Row | EC50 (NLRP3) | EC50 (human TLR8) | EC50 (human TLR7) | Compound
5 | 4.3 µM | 77 µM |  | CC(C)CC(=O)N1CCC[C@H]1Cc1nc2c(N)nc3cc(-c4cc[nH]n4)ccc3c2[nH]1 [Example 87]
6 | 3.9 µM |  | 57 µM | N#CC1(C(=O)N2CCC[C@@H](c3nc4c(N)nc5cc(-c6cc[nH]n6)ccc5c4[nH]3)C2)CCCC1 [Example 70]
7 | 2 µM | 17 µM |  | N#CC1(C(=O)N2CCC[C@H](c3nc4c(N)nc5cc(-c6cc[nH]n6)ccc5c4[nH]3)C2)CCCCC1 [Example 38]
8 | 0.98 µM |  | 0.62 µM | N#CC1(C(=O)N2CCC[C@H](c3nc4c(N)nc5cc(-c6cc[nH]n6)ccc5c4[nH]3)C2)CC1 [Example 3, (S)-1-(3-(4-Amino-7-(1H-pyrazol-3-yl)-1H-imidazo[4,5-c]quinolin-2-yl)piperidine-1-carbonyl)cyclopropane-1-carbonitrile]
9 | 1.2 µM | 47 µM |  | CC(C)(C)C(=O)N1CCC[C@H](c2nc3c(N)nc4cc(-c5cc[nH]n5)ccc4c3[nH]2)C1 [Example 28]
